Source: patent publication US20200339544A1 (JOINT STOCK COMPANY "BIOCAD", priority 2017, published 2020)
pIC50: −log10 of the molar value. Where a name gives a salt, the structure may show the parent alone. Read-outs that look alike come from different tables or passages of the source.

Key:
[1] = system: H1975 (lung adenocarcinoma, DM, L828R/T790M); assay: Antiproliferative activity on H1975 cells (Alamar Blue); format: cell-based; conditions: for pIC50: Homo sapiens, NCI-H1975, H1975 cells; for SI IC50(A549)/IC50(DM): selectivity index, A549 vs H1975 cells
Procedure, shortened: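 H1975 cells (15*10^3/well) attached 16-18 h in RPMI-1640 with 2% FBS, then exposed to compounds (≤1% DMSO final) for 72 h at 37 °C. Viability by Alamar Blue fluorescence (Ex 540/Em 590 nm) after 3-5 h; IC50 from four-parameter logistic fit.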

[2] = Permeability through monolayer of Caco-2 cells; format: in vitro ADME; conditions: human, Caco-2 monolayer; for Papp A→B at 2 h, 10 µM: pH 6.5 upper / pH 7.4 lower, 2 h at 37° C.; for efflux ratio at 2 h, 10 µM: Papp B-A/Papp A-B
Source text: 2) Assessment of permeability through monolayer of Caco-2 cells.
Assessment of permeability through the monolayer of Caco-2 cells allows to evaluate the ability of the candidate compounds to penetrate through biological membranes by active and passive transport.
Caco-2, the cells of the intestinal epithelium, had been cultured in transwell plate inserts with the filters (with pores of 0.4 μm, BD Falcon with High Density) for 21 days, and then the integrity of the monolayer were estimated with Lucifer Yellow (Sigma-Aldrich, USA) by standard protocol. When setting the A→B transfer (“intestinal lumen”—“blood stream” transfer), solutions of test substances were added in a buffer with pH 6.5 (HBSS, 10 mM HEPES, 15 mM glucose solution) with the concentration of 10 μM into the upper chamber; the lower chamber was filled with a buffer with pH 7.4 (HBSS, 10 mM HEPES, 15 mM Glucose, 1% BSA). When setting B→A transfer (“blood stream”—“intestinal lumen” transfer), the upper chamber was filled with the buffer with pH 6.5, and solutions of the test substances were added in the buffer with pH 7.4 at the concentration of 10 μM in the lower chamber. Propranolol was used as a control substance (as it has high permeability).
After incubating for 2 h at 37° C. under 5% CO2, the amounts of test substances were determined in the upper and lower chambers by HPLC using Agilent1200 chromatograph (Agilent, USA) with preliminary protein precipitation with acetonitrile. We used gradient elution (1 mL/min flow rate). We determined the areas of peaks corresponding to the compounds. On the basis of peak areas in the calibration standards we determined the concentration of compound in the initial solution and in the samples from the wells of the upper and lower chambers. Papp, permeability through the cell layer, was calculated using the following formula:
Papp=(C(t)*V)/(C(0)*t*Area), wherein
The value was calculated with the following formula:
efflux=Papp B-A/Papp A-B, wherein • Papp A-B—the volume of permeability in A→B test; • Papp B-A—he volume of permeability in B→A test.

[3] = Chemical stability in simulated intestinal fluid (SIF); format: physicochemical; conditions: SIF without enzymes, pH 6.5; 10 μm; 2 hours at 37° C.; substance amount remaining
Method: 1) Determination of chemical stability in simulated intestinal fluid, simulated gastric fluid and human blood plasma.
SGF concentrate without enzymes, pH=1,4 (Sigma Ireland, cat #01651) was used as simulated gastric fluid. Initial candidate solution (10 mM in DMSO) was diluted with a SGF working solution to a concentration of 10 μm (test solution). The test solution was incubated in a dry block thermostat for 2 hours at 37° C. SIF concentrate without enzymes, pH=6.5 (Sigma Ireland, cat #55331) was used as simulated intestinal fluid. Initial candidate solution (10 mM in DMSO) was diluted with a SIF working solution to a concentration of 10 μm (test solution). The test solution was incubated in a dry block thermostat for 2 hours at 37° C. HPLC with Agilent 1200 liquid chromatography system (Agilent, USA) was employed to determine peak areas of the compounds in test samples, said peak areas corresponding to the initial test time (prior to incubation) and the final test time (after incubation in a dry block thermostat for 2 hours at 37° C.). We used gradient elution (1 mL/min flow rate). Substance amount in % in a sample after thermostatting was determined.
The stability of the compounds was estimated.

[4] = average values obtained in several tests, Table 16, read-out: H1975 (DM) IC50
[5] = antiproliferative test, Table 15, read-out: IC50 H1975 (DM)

| Structure (SMILES) | pIC50 [1, 4] | pIC50 [1, 5] | SI IC50(A549)/IC50(DM) [1] | Papp A→B at 2 h, 10 µM [2] [×10⁻⁶ cm/s] | efflux ratio at 2 h, 10 µM [2] | Stability in SIF, % [3] [%] |
| --- | --- | --- | --- | --- | --- | --- |
| C=CC(=O)Nc1cc(Nc2nccc(C(=O)c3cc4ccccc4n3C)n2)c(OC)cc1N(C)CCN(C)C [EGFR_3365_94, N-(2-((2-(dimethylamino)ethyl) (methyl)amino)-4-methoxy-5-((4-(1-methyl-1H-indole-2-carbonyl)pyrimidin-2-yl)amino)phenyl)acrylamide] | 8.18 | 8.18 | 1037 | 6.54 | 0.86 | – |
| C=CC(=O)Nc1cc(Nc2nccc(C(=O)c3ccc(OC)cc3OC)n2)c(OC)cc1N(C)CCN(C)C [EGFR_3365_69, N-(5-((4-(2,4-dimethoxybenzoyl)pyrimidin-2-yl)amino)-2-((2-(dimethylamino)ethyl)(methyl)amino)-4-methoxyphenyl)acrylamide] | 8.10 | 8.10 | >1261 | – | – | 100.0 |
| C=CC(=O)Nc1cc(Nc2nccc(C(=O)c3ccc(OCC)cc3OCC)n2)c(OC)cc1N(C)CCN(C)C [EGFR_3365_68, N-(5-((4-(2,4-diethoxybenzoyl)pyrimidin-2-yl)amino)-2-((2-(dimethylamino)ethyl) (methyl)amino)-4-methoxyphenyl)acrylamide] | 7.46 | 7.46 | 235 | – | – | 98.2 |
| C=CC(=O)Nc1cc(Nc2nccc(C(=O)c3ccc(Oc4ccccc4)cc3)n2)c(OC)cc1N(C)CCN(C)C [EGFR_3365_17, N-(2-((2-(dimethylamino)ethyl)(methyl)amino)-4-methoxy-5-((4-(4-phenoxybenzoyl)pyrimidin-2-yl)amino)phenyl)acrylamide] | 6.41 | 6.41 | 6.08 | – | – | 98.8 |
| C=CC(=O)Nc1cc(Nc2cc(C(=O)c3ccccc3)ccn2)c(OC)cc1N(C)CCN(C)C [EGFR_3365_3, N-(5-((4-benzoylpyridin-2-yl)amino)-2-((2-(dimethylamino)ethyl)(methyl)amino)-4-methoxyphenyl)acrylamide] | 7.35 | 7.35 | 136.32 | 5.9 | 0.8 | 100.0 |
| C=CC(=O)Nc1cc(Nc2nccc(C(=O)c3ccc(OCCC)cc3)n2)c(OC)cc1N(C)CCN(C)C [EGFR_3365_30, N-(2-((2-(dimethylamino)ethyl)(methyl)amino)-4-methoxy-5-((4-(4-propoxybenzoyl)pyrimidin-2-yl)amino)phenyl)acrylamide] | 7.78 | 7.79 | 337.72 | 4.36 | 0.5 | 92.9 |
| C=CC(=O)Nc1cc(Nc2cc(C(=O)c3ccc(N4CCCC4)cc3)ccn2)c(OC)cc1N(C)CCN(C)C [EGFR_3365_56, N-(2-((2-(dimethylamino)ethyl)(methyl)amino)-4-methoxy-5-((4-(4-(pyrrolidin-1-yl)benzoyl)pyridin-2-yl)amino)phenyl)acrylamide] | 7.53 | 7.53 | 156 | 1.8 | 1.7 | 96.4 |
| C=CC(=O)Nc1cc(Nc2nccc(C(=O)c3ccc(N4CCC(N)CC4)cc3)n2)c(OC)cc1N(C)CCN(C)C [EGFR_3365_121, N-(5-((4-(4-(4-aminopiperidin-1-yl)benzoyl)pyrimidin-2-yl)amino)-2-((2-(dimethylamino)ethyl)(methyl)amino)-4-methoxyphenyl)acrylamide] | 8.38 | 8.38 | 1983 | 1.87 | 0.87 | – |
| C=CC(=O)Nc1cc(Nc2cc(C(=O)c3ccc(N4CCN(C)CC4)cc3)ccn2)c(OC)cc1N(C)CCN(C)C [EGFR_3365_55, N-(2-((2-(dimethylamino)ethyl)(methyl)amino)-4-methoxy-5-((4-(4-(4-methylpiperazin-1-yl)benzoyl)pyridin-2-yl)amino)phenyl)acrylamide] | 6.68 | 6.68 | 55 | – | – | 97.2 |
| C=CC(=O)Nc1cc(Nc2nccc(C(=O)c3ccc(OCC)cc3)n2)c(OC)cc1N(C)CCN(C)C [EGFR_3365_29, N-(2-((2-(dimethylamino)ethyl)(methyl)amino)-5-((4-(4-ethoxybenzoyl)pyrimidin-2-yl)amino)-4-methoxyphenyl) acrylamide] | 7.57 | 7.57 | 595.06 | 4.26 | 1.5 | 100.0 |
| C=CC(=O)Nc1cc(Nc2cc(C(=O)c3ccc(N4CC(OC)C4)cc3)ccn2)c(OC)cc1N(C)CCN(C)C (racemic) [EGFR_3365_53, N-(2-((2-(dimethylamino)ethyl)(methyl)amino)-4-methoxy-5-((4-(4-(3-methoxyazetidin-1-yl)benzoyl)pyridin-2-yl)amino)phenyl)acrylamide] | 7.35 | 7.35 | 183 | – | – | 98.8 |
| C=CC(=O)Nc1cc(Nc2nccc(C(=O)c3ccc(OC)cc3OCCC)n2)c(OC)cc1N(C)CCN(C)C [EGFR_3365_102, N-(2-((2-(dimethylamino)ethyl)(methyl)amino)-4-methoxy-5-((4-(4-methoxy-2-propoxybenzoyl)pyrimidin-2-yl)amino)phenyl)acrylamide] | 7.09 | 7.09 | 69 | 27.5 | 1.62 | – |
| C=CC(=O)Nc1cc(Nc2nccc(C(=O)c3ccc(N4CCCCC4)cc3)n2)c(OC)cc1N(C)CCN(C)C [EGFR_3365_90, N-(2-((2-(dimethylamino)ethyl)(methyl)amino)-4-methoxy-5-((4-(4-(piperidin-1-yl)benzoyl)pyrimidin-2-yl)amino)phenyl)acrylamide] | 8.30 | 8.12 | 1060 | 2.2 | 1.49 | – |
| C=CC(=O)Nc1cc(Nc2cc(C(=O)c3ccc(-c4cnn(C)c4)cc3)ccn2)c(OC)cc1N(C)CCN(C)C [EGFR_3365_85, N-(2-((2-(dimethylamino)ethyl)(methyl)amino)-4-methoxy-5-((4-(4-(1-methyl-1H-pyrazol-4-yl)benzoyl)pyridin-2-yl)amino)phenyl) acrylamide] | 6.86 | 6.86 | 10 | – | – | 98.4 |
| C=CC(=O)Nc1cc(Nc2nccc(C(=O)c3ccc(N4CCN(C)CC4)cc3)n2)c(OC)cc1N(C)CCN(C)C [EGFR_3365_62, N-(2-((2-(dimethylamino)ethyl)(methyl)amino)-4-methoxy-5-((4-(4-(4-methylpiperazin-1-yl)benzoyl)pyrimidin-2-yl)amino)phenyl)acrylamide formate] | 7.64 | 7.22 | 539 | – | – | 100.0 |
| C=CC(=O)Nc1cc(Nc2nccc(C(=O)c3ccc(OCc4ccccc4)cc3)n2)c(OC)cc1N(C)CCN(C)C [EGFR_3365_16, N-(5-((4-(4-(benzyloxy)benzoyl)pyrimidin-2-yl)amino)-2-((2-(dimethylamino)ethyl)(methyl)amino)-4-methoxyphenyl)acrylamide] | 7.27 | 7.27 | 41.10 | – | – | 100.0 |
